Results from patent publication US20050049241A1, “Pyridyl piperazinyl ureas” (priority 2003, published 2005).

Columns and labels:
[1] = test system: guinea pigs; settings: cough induced by capsaicin and citric acid; cited from earlier work
[2] = test system: guinea pig pain models; settings: guinea pig models of inflammatory and neuropathic pain; cited from earlier work
[3] = target: T1, VR1 (Homo sapiens, UniProt Q8NER1); assay: Functional assay: block of capsaicin-induced Ca2+ influx (FLIPR, hVR1/HEK293 cells); assay type: cell-based; parameters: expressed in transfected cells; host or cells: HEK293
T1 sequence (Q8NER1 whole entry): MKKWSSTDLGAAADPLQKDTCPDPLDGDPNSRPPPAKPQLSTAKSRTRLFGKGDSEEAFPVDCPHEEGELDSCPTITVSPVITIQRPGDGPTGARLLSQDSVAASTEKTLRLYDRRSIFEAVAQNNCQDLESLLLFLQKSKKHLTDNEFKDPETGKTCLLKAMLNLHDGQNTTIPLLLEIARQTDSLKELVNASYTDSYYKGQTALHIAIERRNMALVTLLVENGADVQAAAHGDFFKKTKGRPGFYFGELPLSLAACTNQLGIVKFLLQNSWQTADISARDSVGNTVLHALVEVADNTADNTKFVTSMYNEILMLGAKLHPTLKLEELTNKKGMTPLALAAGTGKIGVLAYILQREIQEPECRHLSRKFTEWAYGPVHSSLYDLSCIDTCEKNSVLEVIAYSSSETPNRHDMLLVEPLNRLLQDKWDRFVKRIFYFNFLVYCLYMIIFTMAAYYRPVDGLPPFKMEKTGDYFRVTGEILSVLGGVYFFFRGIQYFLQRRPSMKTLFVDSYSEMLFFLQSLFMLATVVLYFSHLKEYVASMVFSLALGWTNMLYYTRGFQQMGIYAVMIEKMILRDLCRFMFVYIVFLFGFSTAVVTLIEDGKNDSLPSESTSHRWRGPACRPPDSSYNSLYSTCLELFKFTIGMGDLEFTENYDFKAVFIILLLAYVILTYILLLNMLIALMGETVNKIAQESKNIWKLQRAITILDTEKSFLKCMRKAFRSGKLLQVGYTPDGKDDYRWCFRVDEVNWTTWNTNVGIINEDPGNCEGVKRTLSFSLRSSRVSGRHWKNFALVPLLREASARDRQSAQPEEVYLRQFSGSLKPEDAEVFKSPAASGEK
Procedure: Functional assay: block of capsaicin-induced Ca^2+ influx
The contents of the wells were mixed 3 times (40 μL mix volume) immediately after the additions were made.

[4] = target: T1, VR1; assay: [3H] Resiniferatoxin binding assay on cell membranes; parameters: expressed in transfected cells; inferred to be hVR1/HEK293; settings: [3H] RTX displacement, 37° C. 60 min
Procedure: Resiniferatoxin Binding Assay
Cell membranes were prepared by washing cells with Hank's Balanced Salt Solution. Cells were dissociated with cell dissociation buffer (Sigma), and then centrifuged at 1000×g for 5 min. Cell pellets were homogenized in cold 20 mM HEPES buffer, pH 7.4, containing 5.8 mM NaCl, 320 mM sucrose, 2 mM MgCl2, 0.75 mM CaCl2 and 5 mM KCl and centrifuged at 1000×g for 15 min. The resultant supernatant was then centrifuged at 4000×g for 15 min. The pellet membranes were stored at −80° C. […] Briefly, about 120 μg protein/mL membranes were incubated with the indicated concentration of [^3H] RTX (New England Nuclear) in 0.5 mL of the HEPES buffer (pH 7.4) containing 0.25 mg/mL fat acid free bovine serum albumin at 37° C. for 60 min and then the reaction mixture was cooled to 4° C. α1-Acid glycoprotein (0.1 mg) was added to each sample and was incubated at 4° C. for 15 min. The samples were centrifuged at 18,500 g for 15 min. The tip of the microcentrifuge tube containing the pellets was cut off. The non-specific binding was tested in the presence of 200 nM unlabeled RTX. Bound radioactivity was quantified by scintillation counting. Ki is calculated based on a non-linear regression program (PRISM™ software, GraphPad Software, San Diego, Calif.).

Oc1cc2c(cc1O)CN(C(=S)NCCc1ccc(Cl)cc1)CCC2 [Capsazepine]
inhibition of cough [1]: inhibits cough induced by capsaicin and citric acid
reversal of mechanical hyperalgesia [2]: reverses mechanical hyperalgesia

O=C(Nc1ccc(C(F)(F)F)cn1)N1CCN(c2ncccc2Cl)CC1 [Comparative A, 4-(3-chloro-pyridin-2-yl)-piperazine-1-carboxylic acid (5-trifluoromethyl-pyridin-2-yl)-amide]
IC50 ([3]; block of Ca2+ influx induced by 15 nM capsaicin, hVR1/HEK293, 3 and 60 min incubation data combined): 120 nM
Ki [4]: 1020 nM

COc1cc(CNC(=O)CCCC/C=C/C(C)C)ccc1O [capsaicin]
capsaicin concentration at ~EC80 ([3]; agonist, human recombinant VR1 in hVR1/HEK293): ~15 nM
